Experiments:
MCF-7 cells = experiment: Cellular metabolomics study (LC-MS); type: cell-based, human; settings: MCF-7, BoA2C (2 μM) 72 h, BoA2C and Control groups
Description: To eliminate excess medium, cells were washed twice with 1 ml of PBS solution. The wells were then filled with 2 ml of ACN: MeOH: H2O 50:30:20 (v/v) and placed in the freezer for 20 min. The extracts obtained in an Eppendorf tube after the cells were scraped and vortexed. The mixture was then centrifuged for 10 min at 10,000 rpm and 4°C, and the supernatant was collected and dried with an evaporator. 300 μl MeOH was used for reconstitution. 15 μL of the reconstituted extract was mixed with 15 μl H2O and […] ACN for the metabolomics analysis of the intracellular material. After centrifugation (10 min, 4°C, 11,800 g), the supernatant was transferred to an LC-MS vial for analysis.
An Acquity UPLC HSS T3 column (1.8 μm 100 × 2.1 mm) using an UltiMate 3000 high performance LC system coupled to Q Exactive MS was used for metabolic profiling ([Shu et al., 2020]). At a flow rate of 0.3 ml/min, mobile phase A (water containing 0.1% acid) and mobile phase B (methanol) were used. A was reduced from 80 % to 70% from 0 to 2 min, A was reduced to 55% from 2 to 5 min, A was reduced to 40% from 5 to 6.5 min, A was reduced to 35% from 6.5 to 12 min, A was last reduced to 0 from 12 to 18 min. The gradient of the mobile phase was as follows: The column oven temperature was set to 40°C, and the autosampler temperature was set to 4°C. The injection volume was 1 μl. MS used electron spray ionization to operate in both positive and negative ionization modes (ESI). To assess the stability and repeatability of the LC-MS-based metabolomics method, quality control (QC) samples were used. Each QC sample was made by combining five samples of the same volume (100 μL) in the order of analysis. To ensure the system method’s stable operation, all combined QC samples for running all QC samples made by every five samples before analysis. After five samples were tested during the analysis run, the combined QC samples of the five samples were taken.
Mass spectrometry data of metabolites in MCF-7 cells was used for metabolomics investigation after co-cultivation with BoA2C (2 μM) for 72 h. The effectiveness of the OPLS-DA model to distinguish between the BoA2C and Control groups was assessed using the success criterion of R^2 ≥ 0.7 and Q^2 ≥ 0.4 ([Martin-Blazquez et al., 2019]). […] VIP-plots were investigated using the OPLS-DA models to examine important factors that led to the differentiation of the metabolome between the BoA2C and Control groups. Variables having a VIP value greater than 1 were deemed significant contenders. Matching retention time and MS fragmentation patterns from the MetaboAnalyst (version 5.0) database verified the presence of distinct metabolites ([Pang et al., 2021]). These metabolites were further categorized based on their characteristics, including amino acids, amines, aliphatic acids and bile acids. All differential metabolites were loaded into MetaboAnalyst (version 5.0) for metabolic analysis to further explain the fundamental mechanisms of BoA2C’s cytotoxic impact on breast carcinoma cells. In accordance with the described guidelines, the Homo sapiens pathway library and Fisher’s exact test were used for route enrichment analysis, while relative-betweeness centrality was used for pathway topology analysis ([Pang et al., 2021]). The impacted metabolic pathways were defined as those with a pathway effect value more than 0.10 and a p value less than 0.05. […] Six of them (Figure 7B, Table 3) were primarily involved: 1) arginine and proline metabolism 2) linoleate metabolism 3) bile acid biosynthesis 4) de novo fatty acid biosynthesis 5) fatty acid activation, and (VI) fatty Acid Metabolism.

HepG2 = experiment: MTT assay, HepG2 cells; type: cell-based, human; settings: Homo sapiens, HepG2, 72 h incubation, read-out: Half maximal inhibitory concentration (IC50) values, HepG2
Source text: The human hepatocellular carcinoma cell line (HepG2), human hepatocellular carcinoma cell line (Bel-7402), human cervical cancer cell line (Hela), human breast adenocarcinoma cell line (MCF-7) and Madin-Darby canine kidney cell line (MDCK) were obtained from the Chinese Academy of Medical Sciences and Peking Union Medical College. Cultures were maintained as monolayer in RPMI-1640/DMEM supplemented with 10% (v/v) fetal bovine serum (FBS) and 1% (v/v) penicillin/streptomycin (Thermo Technologies, New York, NY, United States) under a humidified atmosphere containing 5% CO2 at 37°C. The BoA derivatives and positive control drugs (BoA and DDP) under study were dissolved in DMSO (Sigma, St. Louis, MO, United States) and added at required concentrations to the cell culture. Cells incubated without the preparations served as the control.
The antitumor activity was assessed by MTT assay, as previously reported ([Fang et al., 2018]). Each tested compound and positive control drugs were dissolved in DMSO and diluted with the medium to the test concentrations, and the final concentration of DMSO in the culture medium was controlled at less than 0.5% (v/v). Briefly, cells were cultured at 37°C and dispersed in replicates in 96-well plates with HepG2, Bel-7402, HeLa, MCF-7 and MDCK for 24 h. Fresh medium along with compounds (BoAA-BoAE, BoA2A-BoA2G, BoA3A-BoA3G, BoA4A-BoA4G) at different concentrations was then added to individual wells and incubated for 72 h, with BoA and DDP as the positive control. Experiments on FXR expression were separated into three groups: Control (PBS), BoA2C (8 μM), and BoA2C (8 μM) + DY268 (10 μM) ([Giordano et al., 2016]), with three repeating wells in each. In separate wells, BoA2C and DY268 were introduced and cultured for 72 h. After 72 h, the cell was incubated with MTT solution (0.5 mg/ml) for an additional 4 h at 37°C. The produced formazan crystals were solubilized with DMSO, and the optical density of solution was measured at 570 nm using a plate reader (BIORAD 550 spectrophotometer, Bio-rad Life Science Development Ltd., Beijing, China). Wells without drugs were used to be blanks. The IC50 values were defined as the concentration of compounds that produced a 50% proliferation inhibition of surviving cells and calculated using the Graph Pad Prism 5. The inhibitory rate was calculated in the following Equation 1, where OD is the optical density: % inhibition=[1−(OD Sample group−OD Blank group)/(OD Control group−OD Blank group)]×100% (1)

[1] = Arginine and Proline Metabolism
[2] = De novo fatty acid biosynthesis

In the case of `C=C(C)[C@@H]1CC[C@]2(C(=O)OCCOC(=O)c3cnc(C)cn3)CC[C@]3(C)[C@H](CC[C@@H]4[C@@]5(C)CCC(=O)C(C)(C)[C@@H]5CC[C@]43C)[C@@H]12` [BoA2C, (5-Methylpyrazin-2-acyloxy)-ethyl-3-oxolup-20(29)-en-28-oate], the “fold change of 4-Acetamidobutanoic acid (M4)” value (MCF-7 cells; [1]) is reported as 2.37, the “fold change of 5′-Methylthioadenosine (M10)” value (MCF-7 cells; [1]) is reported as 28.55 and the “fold change of L-4-Hydroxyglutamate semialdehyde (M6)” value (MCF-7 cells; [1]) is reported as 1.99. For the same compound, the “fold change of L-Arginine (M14)” value (MCF-7 cells; [1]) was 1.90, the “fold change of L-Glutamic acid (M18)” value (MCF-7 cells; [1]) was 1.94 and the “fold change of L-Glutamine (M7)” value (MCF-7 cells; [1]) was 2.33. For the same compound, the “fold change of L-Methionine (M12)” value (MCF-7 cells; [1]) was 3.63, the “fold change of L-Proline (M5)” value (MCF-7 cells; [1]) was 2.40 and the “fold change of 3,7-Dihydroxycoprostanic Acid (M21)” value (MCF-7 cells; Bile acid biosynthesis) was 1027.39. For the same compound, the “fold change of 3a,7a-Dihydroxy-5b-cholestan-26-al (M13)” value (MCF-7 cells; Bile acid biosynthesis) was 241.46, the “fold change of 3 alpha,7 alpha,26-Trihydroxy-5beta-cholestane (M3)” value (MCF-7 cells; Bile acid biosynthesis) was 362.98 and the “fold change of 7a,12a-Dihydroxy-cholestene-3-one (M16)” value (MCF-7 cells; Bile acid biosynthesis) was 17.04. For the same compound, the “fold change of 7a-Hydroxy-5b-cholestan-3-one (M25)” value (MCF-7 cells; Bile acid biosynthesis) was 9.40, the “fold change of 7a-Hydroxy-cholestene-3-one (M28)” value (MCF-7 cells; Bile acid biosynthesis) was 4.47 and the “fold change of 7alpha-Hydroxycholesterol (M17)” value (MCF-7 cells; Bile acid biosynthesis) was 92.35. For the same compound, the “fold change of 27-Deoxy-5b-cyprinol (M24)” value (MCF-7 cells; Bile acid biosynthesis) was 2.03, the “fold change of Cholesterol (M1)” value (MCF-7 cells; Bile acid biosynthesis) was 7.69 and the “fold change of Cholic acid (M2)” value (MCF-7 cells; Bile acid biosynthesis) was 2.55. The “fold change of Lithocholic acid (M27)” value (MCF-7 cells; Bile acid biosynthesis) was 108.49, the “fold change of Palmitic acid (M11)” value (MCF-7 cells; [2]) was 23.17 and the “fold change of alpha-Linolenic acid (M26)” value (MCF-7 cells; [2]) was 2.19. The “fold change of 2-trans-dodecenoyl-CoA (M22)” value (MCF-7 cells; Fatty Acid Metabolism) was 1.93, the “fold change of 3-Oxotetradecanoyl-CoA (M15)” value (MCF-7 cells; Fatty Acid Metabolism) was 1.77 and the “fold change of 13-HODE (M23)” value (MCF-7 cells; Linoleate metabolism) was 108.54. For the same compound, the “fold change of 13-Hpode (M9)” value (MCF-7 cells; Linoleate metabolism) was 23.04, the “fold change of Ascorbic Acid (M19)” value (MCF-7 cells; Linoleate metabolism) was 2.88 and the “fold change of Linoleic acid (M20)” value (MCF-7 cells; Linoleate metabolism) was 159.58. For the same compound, the “fold change of LysoPC(P-18:0/0:0) (M8)” value (MCF-7 cells; Linoleate metabolism) was 3.29 and the IC50 (HepG2) was 7.46 ± 1.43 µM.

From publication PMC9486541, “Design, synthesis and cytotoxic evaluation of novel betulonic acid-diazine derivatives as potential antitumor agents” (Frontiers in Chemistry, 2022)
